{"source": "paper PMC3776838", "about": "“Detection of Phospho-Sites Generated by Protein Kinase CK2 in CFTR: Mechanistic Aspects of Thr1471 Phosphorylation” (PLoS ONE, 2013)", "key": {"[1]": {"tested_on": "CK2 α-catalytic subunit", "test": "Phosphorylation of the 42-mer CFTR peptide by isolated CK2 α-catalytic subunit", "format": "biochemical, human", "details": "0.4 µg peptide, pH 7.5, 50 µM [γ-33P]ATP, 10 min, 37°C, autoradiography, Figure 2A", "description": "(§1) Human CK2, both the α-catalytic subunit and the α2β2-holoenzyme were expressed in Escherichia coli. CK2α2β2 holoenzyme was reconstituted by mixing pellets expressing CK2α and CK2β independently. Cells were lysed by French press at 4°C in Tris/HCl 25 mM, pH 8, NaCl 0.4 M, DTT 1 mM, proteases inhibitors cocktail (Roche). The soluble fraction obtained after 30 min centrifugation at 15000 g was applied on Heparin-Sepharose and the proteins were separated using a gradient elution (0.4–1 M NaCl). Fractions containing CK2 were further purified by size-exclusion chromatography using a buffer composed by Tris/HCl 25 mM, pH 8, NaCl 0.5 M, DTT 1 mM.\nRecombinant mouse full length CFTR (mCFTR) was cloned, expressed and purified as described in [20]. […]\n(§2) Peptides derived from human CFTR C-terminal region were phosphorylated by incubation in a 20-µl volume containing 50 mM Tris/HCl, pH 7.5, 10 mM MgCl2, 100 mM NaCl, and 50 µM [γ-^33P]ATP (specific radioactivity 1,500–2,000 cpm/pmol). […] Samples were separated on Tricine-SDS-PAGE following the Schägger’s protocol in a running buffer composed of 100 mM Tris/HCl, pH 8.3, 100 mM Tricine, 0.1% (w/v) SDS. ^33P incorporation was evaluated by gels autoradiography on PerkinElmer’s Cyclone Plus Storage Phosphor System. Initial rate data were analyzed with the program Prism (GraphPad Software, La Jolla, CA)."}, "[2]": {"target": "T1, CK2 holoenzyme (CK2 α2β2) (Homo sapiens, UniProt P67870+P68400)", "T1 construct": "made in house; host or cells: Escherichia coli", "test": "Phosphorylation of CFTR C-terminal peptides by CK2 holoenzyme (33P incorporation)", "format": "biochemical", "details": "pH 7.5, 50 µM [γ-33P]ATP, 10 min, 37°C; for Kprime / Khalf / Vmax: Figure 3C, allosteric (sigmoidal) model, GraphPad Prism; for Kprime: Kprime = Khalf^h, not equal to Km unless h = 1; for phosphorylation by CK2 holoenzyme: Tricine-SDS-PAGE, autoradiography, Figures 2A and 3", "description": "as §1\n(§3) Recombinant mouse full length CFTR (mCFTR) was cloned, expressed and purified as described in [20]. A 42-mer peptide reproducing the C-terminal tail of human CFTR (residues 1439–1480) was expressed in Escherichia coli with an N-terminal His tag and purified using affinity chromatography (Talon) followed by cleavage of the His tag by thrombin. Further details are given in the Material S1.\nSynthetic peptide encompassing the last 20 residues of human CFTR C-terminal domain ([…], residues 1461–1480) was obtained by solid phase peptide synthesis method using a multiple peptide synthesizer (SyroII, MultiSynTech GmbH) on p-Benzyloxybenzyl alcohol resin (100–200 mesh) HMP resin (Novabiochem). The fluoren-9-ylmethoxycarbonyl (Fmoc) strategy was used throughout the peptide chain assembly, utilizing O-(7-Azabenzotriazol-1-yl)-N,N,N′,N′-tetramethyluronium hexafluorophosphate (HATU) as coupling reagent. The side-chain protected amino acid building blocks used were: N-α-Fmoc-Nω-(2,2,4,6,7-pentamethyldihydrobenzofuran-5-sulfonyl)-L-arginine, N-α-Fmoc-γ-tert-butyl-L-glutamic acid, N-α-Fmoc-β-tert-butyl-L-aspartic acid, N-α-Fmoc-O-tert-butyl-L-threonine, N-α-Fmoc-Nε-(tert-butyloxycarbonyl)-L-lysine, N-α-Fmoc-N-γ-trityl-L-glutamine. Cleavage of the peptide was performed by reacting the peptidyl-resin with a mixture containing TFA/ethanedithiol/phenol 5% for 2.5 h. Crude peptide were purified by a preparative reverse phase HPLC. Molecular mass of the peptide were confirmed by mass spectroscopy on a MALDI TOF-TOF mass spectrometer (model 4800– AB Sciex). The purity (>90%) was evaluated by analytical reverse phase HPLC.\n(§4) Peptides derived from human CFTR C-terminal region were phosphorylated by incubation in a 20-µl volume containing 50 mM Tris/HCl, pH 7.5, 10 mM MgCl2, 100 mM NaCl, and 50 µM [γ-^33P]ATP (specific radioactivity 1,500–2,000 cpm/pmol). The reaction was started by the addition of the indicated protein kinases. The reaction mixtures were incubated for 10 minutes at 37°C and stopped by the addition of 2× concentrated Tricine sample buffer (450 mM Tris HCl, pH 8.45, 12% (v/v) glycerol, 4% (w/v) SDS, 0.0025% (w/v) Coomassie Blue G, 0.0025% (w/v) Phenol Red and 105 mM DTT). Samples were separated on Tricine-SDS-PAGE following the Schägger’s protocol in a running buffer composed of 100 mM Tris/HCl, pH 8.3, 100 mM Tricine, 0.1% (w/v) SDS. ^33P incorporation was evaluated by gels autoradiography on PerkinElmer’s Cyclone Plus Storage Phosphor System. Initial rate data were analyzed with the program Prism (GraphPad Software, La Jolla, CA)."}, "[3]": {"tested_on": "CK1", "test": "Phosphorylation of the 42 amino acid CFTR peptide by CK1", "format": "biochemical", "details": "not shown; listed as 42 amino acid peptide", "description": "(§5) CK1 isoforms and PLK 2 and 3 were obtained as described in [21], and [22], respectively.\nas §3\nas §2, with “cpm/pmol). The reaction was started by the addition of the indicated protein kinases.” for “cpm/pmol).”"}, "[4]": {"tested_on": "GCK/FAM20C", "test": "Phosphorylation of the 42 amino acid CFTR peptide by Golgi apparatus casein kinase", "format": "biochemical", "details": "not shown; listed as 42 amino acid peptide", "description": "as §3, §4"}, "[5]": {"tested_on": "PLK3", "test": "Phosphorylation of the 42-mer CFTR peptide by PLK3", "format": "biochemical", "details": "same conditions as with CK2 holoenzyme, Figure 2B", "description": "as §5, §3\nas §2, with “cpm/pmol). The reaction was started by the addition of the indicated protein kinases.” for “cpm/pmol).”"}, "[6]": {"tested_on": "PLK2", "test": "Phosphorylation of the 42-mer CFTR peptide by PLK2", "format": "biochemical", "details": "same conditions as with CK2 holoenzyme, Figure 2B", "description": "as §5, §3\nas §2, with “cpm/pmol). The reaction was started by the addition of the indicated protein kinases.” for “cpm/pmol).”"}, "[7]": {"tested_on": "WT, WT/T1471A or Phe508delCFTR", "test": "CFTR bands B and C in BHK cells exposed to CHX or Brefeldin A", "format": "cell-based, human", "description": "Baby hamster kidney cells (BHK) stably expressing human CFTR (hCFTR) either wild type (WT), or Phe508del, or WT T1471A were growth to reach 70–80% confluency. After 2 h-long treatment with 100 µg/mL cyclohexamide, cells were washed with PBS and incubated with 2 µM CX4945 or its vehicle for the indicated time. At each time-point cells were washed with ice-cold PBS, scraped from the plates, pelleted by centrifugation (1200 g for 5 min at room tempertaure) and lysed in a buffer containing 1% (v/v) Nonidet P40, 50 mM Tris/HCl (pH 7.5) and 150 mM NaCl with fresh protease inhibitor tablets (Roche), 1 µM Okadaic acid (Alexis) and phosphatases inhibitors cocktails 2 and 3 (Sigma). Cells were lysed by incubation on ice for 30 min and then the lysates were cleared by centrifugation at 17000 g for 30 min at 4°C. The supernatant was collected and subjected to protein concentration quantification.\nWestern blot analysis was performed as described in [14] using a modified Laemmli buffer containing 105 mM dithiothreitol (final concentration) to enhance the solubilization of CFTR. 20–30 µg of total proteins were separated on 4–12% precast NuPage® Bis-Tris gradient gels (Invitrogen) according to the manufacturer’s instructions and transferred on to Optitran BA-S 83 nitrocellulose membranes (Whatman) with a semi-dry blotter (Biometra) for 1 h at 150 mA. Membranes were saturated for 1 h with 5% skimmed milk in Tris-buffered saline (TBS) containing 0.2% Tween 20. Immunoblots were developed by enhanced chemiluminescence, detected on Kodak Image Station 440 cf and analyzed by the Kodak 1D image software. Tubulin was used as loading control.\nSupplementary file pone.0074232.s004.tif: Figure S4 BHK cells expressing WT, WT/T1471A or Phe508delCFTR were exposed to either cycloheximide (CHX, 100 µg/ml) or Brefeldin A (BFA, 200 ng/ml). […] [a] Glozman R, Okiyoneda T, Mulvihill CM, Rini JM, Barriere H, Lukacs GL (2009) N-glycans are direct determinants of CFTR folding and stability in secretory and endocytic membrane traffic. J. Cell Biol. 184, 847–862. (TIF) Click here for additional data file."}, "[8]": {"details": "listed as 42 amino acid peptide"}, "[9]": {"details": "listed as 42 amino acid-long recombinant fragment"}, "[10]": {"details": "CHX 100 µg/ml, 2 h, Figures 5 and S4"}}, "note": "“Also recorded” adds a separate entry of the source."}
{"compound": "CFTR[1439-1480]: 42-mer peptide reproducing the C-terminal tail of human CFTR (residues 1439–1480), expressed in Escherichia coli with N-terminal His tag, cleaved by thrombin (QAISPSDRVKLFPHRNSSKCKSKPQIAALKEETEEEVQDTRL; left off: His tag, N-terminal, cleaved)", "values": [{"measurement": "phosphorylation by isolated CK2 catalytic α-subunit", "setting": "[1]; [8]", "result": "neither by its isolated catalytic subunit"}, {"measurement": "phosphorylation by isolated CK2 catalytic α-subunit", "setting": "[1]; [9]", "result": "not by the isolated catalytic α-subunit alone"}, {"measurement": "Kprime", "setting": "[2]", "result": 3.13, "unit": "µM"}, {"measurement": "Khalf", "setting": "[2]", "result": 1.49, "unit": "µM"}, {"measurement": "Vmax", "setting": "[2]", "result": 90.5, "unit": "DLUx10^-6"}, {"measurement": "phosphorylation by CK2 holoenzyme", "setting": "[2]; [8]", "result": "readily phosphorylated at Thr1471"}, {"measurement": "phosphorylation by CK2 holoenzyme", "setting": "[2]; [9]", "result": "readily phosphorylated by CK2 holoenzyme"}, {"measurement": "phosphorylation by CK2 holoenzyme", "setting": "[2]; listed as recombinant fragment of human CFTR", "result": "readily phosphorylated, with favorable kinetics, at Thr1471 by CK2 holoenzyme"}, {"measurement": "phosphorylation by CK1", "setting": "[3]", "result": "nor by other acidophilic Ser/Thr kinases (CK1, PLK2/3, GCK/FAM20C); also recorded: unable to phosphorylate the 42 amino acid peptide"}, {"measurement": "phosphorylation by GCK/FAM20C", "setting": "[4]", "result": "nor by other acidophilic Ser/Thr kinases (CK1, PLK2/3, GCK/FAM20C); also recorded: unable to phosphorylate the 42 amino acid peptide"}, {"measurement": "phosphorylation by PLK3", "setting": "[5]", "result": "very low as compared to that obtained with CK2 holoenzyme"}, {"measurement": "phosphorylation by PLK3", "setting": "[5]; [8]", "result": "nor by other acidophilic Ser/Thr kinases (CK1, PLK2/3, GCK/FAM20C); also recorded: a weak phosphorylation was observed"}, {"measurement": "phosphorylation by PLK2", "setting": "[6]", "result": "very low as compared to that obtained with CK2 holoenzyme"}, {"measurement": "phosphorylation by PLK2", "setting": "[6]; [8]", "result": "nor by other acidophilic Ser/Thr kinases (CK1, PLK2/3, GCK/FAM20C); also recorded: a weak phosphorylation was observed"}]}
{"compound": "C[C@@H]1C[C@@H]([C@H](O)CC2CC(=O)NC(=O)C2)C(=O)[C@@H](C)C1", "note": "[CHX, cycloheximide]", "values": [{"measurement": "effect on CFTR band B (immature core-glycosylated, ER-resident)", "setting": "[7]; [10]", "result": "fast and almost complete disappearance of band B; also recorded: attenuation/disappearance of the ER-resident band B of CFTR"}, {"measurement": "effect on CFTR band C (mature fully glycosylated)", "setting": "[7]; [10]", "result": "much slower; also recorded: the fully mature band C is not affected by CHX treatment"}]}
{"compound": "KPQIAALKEETEEEVQDTRL [CFTR[1461-1480], Synthetic peptide encompassing the last 20 residues of human CFTR C-terminal domain]", "values": [{"measurement": "Kprime", "setting": "[2]", "result": 1430, "unit": "µM"}, {"measurement": "Khalf", "setting": "[2]", "result": 1290, "unit": "µM"}, {"measurement": "Vmax", "setting": "[2]", "result": 1477, "unit": "DLUx10^-6"}, {"measurement": "phosphorylation by CK2 holoenzyme", "setting": "[2]; listed as shorter synthetic peptide encompassing Thr1471", "result": "also phosphorylated by CK2 albeit with lower efficiency"}, {"measurement": "phosphorylation by CK2 holoenzyme", "setting": "[2]; listed as synthetic peptide encompassing the last 20 residues of hCFTR", "result": "can also be phosphorylated by CK2 holoenzyme, although much less efficiently"}]}
{"compound": "C[C@H]1CCC/C=C/[C@@H]2C[C@H](O)C[C@H]2[C@H](O)/C=C/C(=O)O1", "note": "[Brefeldin A]", "values": [{"measurement": "effect on CFTR band B (immature core-glycosylated, ER-resident)", "setting": "[7]; Brefeldin A 200 ng/ml, Figure S4", "result": "opposite effects on the fate of band B; also recorded: band B increases"}]}
